In US8153658B2, “Piperidine derivative or salt thereof” (Astellas Pharma, Inc., priority 2006, dated 2012):
pEC50, pIC50: −log10 of the molar value. Where a name gives a salt, the structure may show the parent alone.

How the values were obtained:
human CaSR = target: T1, human CaSR (Homo sapiens, UniProt P41180); test: Human calcium sensing receptor (CaSR) agonism test (Fluo-3 / FLIPR); type: cell-based; settings: HEK 293 cell stably expressing human CaSR; 0.5 mM Ca2+; 2 mM Ca2+ group = 100%; read-out: EC50 (compound concentration showing 50% human CaSR agonistic activity)
T1 construct: a human CaSR open reading frame (ORF) was contained in the pcDNA3.1/Zeo(+) vector; expressed in transfected cells
T1 sequence (P41180 20-1078): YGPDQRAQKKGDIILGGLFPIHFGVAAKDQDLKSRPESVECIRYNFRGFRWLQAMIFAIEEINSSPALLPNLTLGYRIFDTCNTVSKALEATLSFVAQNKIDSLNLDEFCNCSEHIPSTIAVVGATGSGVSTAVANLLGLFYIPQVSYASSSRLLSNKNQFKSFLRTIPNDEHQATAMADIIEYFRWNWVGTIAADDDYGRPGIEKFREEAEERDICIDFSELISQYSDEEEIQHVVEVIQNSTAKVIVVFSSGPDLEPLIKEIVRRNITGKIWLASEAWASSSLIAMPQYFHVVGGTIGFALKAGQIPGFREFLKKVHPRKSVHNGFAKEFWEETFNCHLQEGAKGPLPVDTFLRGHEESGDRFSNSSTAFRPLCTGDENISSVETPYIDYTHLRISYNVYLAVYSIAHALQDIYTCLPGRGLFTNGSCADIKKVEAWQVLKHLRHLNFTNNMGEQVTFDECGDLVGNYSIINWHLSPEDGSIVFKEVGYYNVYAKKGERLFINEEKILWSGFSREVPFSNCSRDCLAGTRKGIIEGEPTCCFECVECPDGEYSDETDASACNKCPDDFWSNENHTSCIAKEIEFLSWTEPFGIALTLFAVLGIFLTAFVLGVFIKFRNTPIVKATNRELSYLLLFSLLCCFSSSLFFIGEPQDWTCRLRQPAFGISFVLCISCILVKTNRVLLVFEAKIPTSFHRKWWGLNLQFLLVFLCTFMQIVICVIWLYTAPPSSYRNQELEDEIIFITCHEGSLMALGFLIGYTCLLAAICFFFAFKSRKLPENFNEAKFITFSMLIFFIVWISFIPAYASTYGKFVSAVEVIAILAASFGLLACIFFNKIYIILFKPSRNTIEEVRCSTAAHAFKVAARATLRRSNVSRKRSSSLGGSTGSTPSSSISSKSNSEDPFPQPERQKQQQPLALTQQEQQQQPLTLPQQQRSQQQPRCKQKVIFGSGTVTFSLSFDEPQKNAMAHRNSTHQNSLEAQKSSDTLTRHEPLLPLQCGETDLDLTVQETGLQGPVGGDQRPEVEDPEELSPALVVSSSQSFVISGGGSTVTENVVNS
Text: Test 1. Human calcium sensing receptor (CaSR) agonism test
1) Preparation of Human CaSR Expression Vector
A DNA fragment coding for human CaSR was cloned in the standard method.
Illustratively, using 203 to 2387 of NM_000388 as a DNA fragment D4, and 2210 to 3633 as a DNA fragment B2, they were amplified using a human kidney cDNA (manufactured by Invitrogen) as the template and using a DNA polymerase (a registered trade name: Pyrobest, manufactured by Takara Bio), and respectively cloned into a pCR2.1 vector using a pCR2.1-Topo vector (manufactured by Invitrogen). Next, the DNA fragments prepared by digesting the pCR2.1-D4 with SpeI and XbaI were inserted into the same sites of pcDNA3.1/Zeo(+) vector. Successively, the fragments prepared by digesting pCR2.1-B2 with SacI and XbaI were inserted into the SacI and XbaI sites of previously prepared pcDNA3.1/Zeo(+)-D4(SpeI-XbaI), thereby obtaining a human CaSR expression vector pcDNA3.1/Zeo(+)-hCaSR in which a human CaSR open reading frame (ORF) was contained in the pcDNA3.1/Zeo(+) vector.
2) Preparation of Human CaSR Expression Cell
The human CaSR expression vector was transferred into a HEK 293 cell using a transfection reagent (registered trademark: FuGene 6, manufactured by Roche Diagnostics). After the gene transfer, this was cultured in a DMEM (manufactured by Invitrogen) medium containing 40 μg/ml Zeocin (registered trademark, manufactured by Invitrogen) and a 10% fetal bovine serum at 37° C. for 2 weeks in the presence of 5% CO2, thereby obtaining Zeocin-resistant clones. A human CaSR stably expressing HEK 293 clone was obtained from these clones by selection using the responsiveness to extracellular Ca^2+ as an index.
3) Human CaSR Agonism Test
The HEK 293 cell stably expressing human CaSR was inoculated into a poly-D-lysine-coated black clear bottom 96 well plate (manufactured by BD Biosciences). Hanks' balanced salt solution (HBSS) (Ca^2+ (−), Mg^2+ (−), manufactured by Invitrogen) containing a 20 mM HEPES (2-[4-(2-hydroxyethyl)-1-piperazinyl]ethanesulfonic acid) buffer (pH 7.4), 2.5 mM of probenecid (manufactured by Sigma), and 0.1% of bovine serum albumin was prepared as a washing buffer. After the inoculation and the subsequent overnight culturing, the medium was discarded, the washing buffer supplemented with 1 mM CaCl2 and 10 μM Fluo-3 AM (trade name, manufactured by DOJINDO) was added thereto in 100 μl per well portions, and then the incubation was carried out at 37° C. for 1 hour in the presence of 5% CO2. This was washed twice with 200 μl of the washing buffer, replaced by 100 μl of the washing buffer supplemented with 0.5 mM CaCl2 and allowed to stand still for 10 minutes, and then the responsiveness to each compound to be evaluated was detected using a plate reader for fluorometry image analysis use (registered trademark: FLIPR, manufactured by Molecular Devices). In this connection, the compound to be evaluated was used by optionally diluting with the washing buffer supplemented with 0.5 mM Ca^2+.
The human CaSR agonistic activity strength of each compound to be evaluated was calculated by defining the solvent group as 0% and the 2 mM of Ca^2+ in the final concentration group as 100%, and the compound concentration showing 50% activity (EC50) was calculated from a concentration-activity curve by the method of least squares.

[1] = Measurement of rat plasma calcium concentration; type: in vivo; settings: normal male rats, single oral administration 3 mg/kg, 2 hours after administration, read-out: Rat plasma calcium concentration reducing ratio (%) 2 hours after administration (3 mg/kg)
Experimental: Test 2. Measurement of Rat Plasma Calcium Concentration and Plasma PTH Concentration
The compounds of the present invention were administered to rats, and their influences upon the plasma calcium concentration and the plasma PTH concentration were examined. The test was carried out by single oral administration of the compounds of the present invention and the control compounds to 5 to 6 normal male rats, or male rats with renal failure, respectively As a vehicle group, 0.5% of a methyl cellulose (MC) solution was administered at a dose of 5 ml/kg. As a reference compound, cinacalcet was dissolved in the MC solution and administered at a dose of 3 mg/kg. Each of the compounds of the present invention was dissolved or suspended in the MC solution, and administered at a dose of 1, 3 or 10 mg/kg.
Blood samples were collected from the orbital venous plexus under ether anesthesia before the administration and 2 hours, 4 hours, or 8 hours in some cases, after the administration, and the plasma calcium concentration was measured using Calcium E-Test Wako (manufactured by Wako Pure Chemical Industries), and the plasma PTH concentration was measured using a Rat Intact PTH ELISA Kit (manufactured by Immutopics).

CYP2D6 [2] = target: T2, CYP2D6 (Homo sapiens, UniProt P10635); test: Human CYP2D6 inhibition test; type: biochemical; parameters: purchased BD Gentest 456217; settings: CYP2D6 7.5 pmol/mL; fluorescence substrate AMMC 1.5 μM; 37° C. 30 minutes
Experimental: Test 3. Human CYP2D6 Inhibition Test
Inhibitory activity evaluation for CYP2D6 was carried out by measuring it in accordance, roughly, with a reference (“Drug Metabolism and Disposition”, 2001, vol. 29, p. 1196-1200).
Final concentrations of the reagents in the enzyme reaction solution were respectively set to CYP2D6=7.5 pmol/mL (manufactured by BD Gentest, Catalog No. 456217), reduced type nicotinamide adenine dinucleotide phosphate (NADPH) regeneration system (0.0081 mM nicotinamide adenine dinucleotide phosphate (NADP+), 0.41 mM glucose-6-phosphate, 0.41 mM MgCl2, 0.4 units glucose-6-phosphate dehydrogenase), and a fluorescence substrate AMMC=1.5 μM, 100 mM potassium phosphate buffer (pH 7.4). Each compound was made into a 50% acetonitrile solution and added to the enzyme reaction solution (acetonitrile final concentration 2.5%). The enzyme reaction was carried out at 37° C. for 30 minutes, the reaction was stopped using a stopping liquid (0.1 M tris(hydroxymethyl)aminomethane (Tris-base):acetonitrile=20:80), and the fluorescence intensity was then measured. The concentration showing 50% inhibition (IC50) was calculated from the thus obtained fluorescence intensity, by defining the enzyme activity at a time of no compound addition as 100%.

CYP2D6 [3] = target: T2, CYP2D6; settings: reported, Non-Patent Document 4; cited from earlier work

T2 sequence (P10635 whole entry): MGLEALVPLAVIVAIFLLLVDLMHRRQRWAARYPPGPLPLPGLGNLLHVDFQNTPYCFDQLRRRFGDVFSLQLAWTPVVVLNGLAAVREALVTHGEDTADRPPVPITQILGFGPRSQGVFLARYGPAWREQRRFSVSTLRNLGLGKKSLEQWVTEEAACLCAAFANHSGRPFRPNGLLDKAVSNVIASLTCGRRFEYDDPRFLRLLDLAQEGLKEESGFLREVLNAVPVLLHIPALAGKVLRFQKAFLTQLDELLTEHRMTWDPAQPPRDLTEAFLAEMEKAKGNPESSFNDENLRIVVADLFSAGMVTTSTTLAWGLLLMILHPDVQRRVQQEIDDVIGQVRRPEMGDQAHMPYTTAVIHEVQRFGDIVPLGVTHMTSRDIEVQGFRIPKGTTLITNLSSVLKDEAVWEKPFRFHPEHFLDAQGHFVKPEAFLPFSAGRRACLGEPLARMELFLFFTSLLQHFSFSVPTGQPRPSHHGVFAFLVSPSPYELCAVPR

pEC50 (human CaSR)	pIC50 (CYP2D6 [2])	SMILES	inhibition in vivo at 3 mg/kg [1]	activity to inhibit CYP2D6 (in words) (CYP2D6 [3])
7.89	≤ 4.70	C[C@@H](NCC1CCN(c2c(F)cc(C(=O)O)cc2F)CC1c1ccccc1)c1cccc2ccccc12 (stereo partly drawn) [Example 52, 3,5-difluoro-4-[4-({[(1R)-1-(1-naphthyl)ethyl]amino}methyl)-3-phenylpiperidin-1-yl]benzoic acid hydrochloride]	26%	
8.12	≤ 4.70	C[C@@H](NCC1CCN(c2cccc(C(=O)O)c2)CC1c1ccccc1F)c1cccc2ccccc12 (stereo partly drawn) [Example 35, 3-[3-(2-fluorophenyl)-4-({[(1R)-1-(1-naphthyl)ethyl]amino}methyl)piperidin-1-yl]benzoic acid hydrochloride]	33%	
		C[C@@H](NCCCc1cccc(C(F)(F)F)c1)c1cccc2ccccc12 [cinacalcet]		strong activity to inhibit CYP2D6
